Type in all cases: cell-based
For assay [1], the system named is DU145 (prostate carcinoma). Description: In vitro antiproliferation assay, DU145 cells. The protocol: (§1) Cis racemic Compound 15, (1S,2R) enantiomeric Compound 15a and […] enantiomeric Compound 15b were also tested against DU145 (prostate carcinoma), HCT116 (colorectal carcinoma) and MiaPaCa-2 (pancreatic carcinoma) cell lines.
(§2) Certain compounds were tested against other cell types for their ability to inhibit proliferation in standard antiproliferation assays.

In assay [2] the test system is HCT116 (colorectal carcinoma). Description: In vitro antiproliferation assay, HCT116 cells. As to conditions: Homo sapiens, HCT-116; HCT116 (colorectal carcinoma) cell line. How it is done:
as §1

The test system of assay [3] is MiaPaCa-2 (pancreatic carcinoma). Description: In vitro antiproliferation assay, MiaPaCa-2 cells. The protocol: as §1, §2
In assay [4] the test system is H1299 (non-small cell lung carcinoma). The assay is described as follows: In vitro antiproliferation assay, H1299 cells (TABLE 1 6 point assay; TABLE 2). The protocol:
as §2

In assay [5] the test system is A549 (lung carcinoma). The assay is described as follows: In vitro antiproliferation assay, A549 cells (TABLE 1 6 point assay; TABLE 2). The protocol:
as §2

Assay [6] deals with H7299. Description: In vitro antiproliferation assay, H7299 cells. The protocol: as §2
Assay [7] concerns PC3 (prostate adenocarcinoma). Description: In vitro antiproliferation assay, PC3 cells. The protocol: as §2
The subject of assay [8] is THP-1 (monocyte acute monocytic leukemia). Description: In vitro antiproliferation assay, THP-1 cells. The protocol:
as §2

Assay [9] deals with SW620 (colorectal adenocarcinoma). Description: In vitro antiproliferation assay, SW620 cells. The protocol: as §2
In assay [10] the test system is MOLT3 (T lymphoblast acute lymphoblastic leukemia). The assay is described as follows: In vitro antiproliferation assay, MOLT3 cells. The protocol: as §2
Assay [11] concerns COLO 205 (colorectal adenocarcinoma). Description: In vitro antiproliferation assay, COLO 205 cells. As to conditions: Colo205. How it is done: as §2
The test system of assay [12] is L1210 (mouse lymphocytic leukemia). The assay is described as follows: In vitro antiproliferation assay, L1210 cells. The protocol: as §2
In assay [13] the test system is HL160 (promyeloblast promyelocytic leukemia). The assay is described as follows: In vitro antiproliferation assay, HL160 cells. How it is done:
as §2

Assay [14] concerns MOLT4 (T lymphoblast acute lymphoblastic leukemia). Description: In vitro antiproliferation assay, MOLT4 cells. How it is done: as §2
Assay [15] concerns ASPC-1 (pancreatic adenocarcinoma). Description: In vitro antiproliferation assay, ASPC-1 cells. As to conditions: ASPC1. The protocol:
as §2

In assay [16] the test system is K562 (bone marrow chronic myelogenous leukemia). Description: In vitro antiproliferation assay, K562 cells. How it is done: as §2
Assay [17] relates to U2OS (bone osteosarcoma). Description: In vitro antiproliferation assay, U2OS cells. As to conditions: U20S. How it is done:
as §2

The subject of assay [18] is HELA (cervical adenocarcinoma). The assay is described as follows: In vitro antiproliferation assay, HELA cells. How it is done: as §2
Assay [19] deals with H1155 (non-small cell lung carcinoma). Description: In vitro antiproliferation assay, H1155 cells. As to conditions: H1155. How it is done: as §2
Assay [20] concerns the target T1, Aurora kinase-B (Homo sapiens, UniProt Q96GD4).
T1 construct: endogenous in cells; host or cells: A549 cells
The assay is described as follows: Functional cellular assay of Aurora kinase-B: phosphorylation of histone H3 in A549 cells. How it is done:
Enantiomers E1 and E2 (Compounds 60a and 60b, respectively) were tested for their ability to inhibit Aurora kinase-B in a functional cellular assay involving phosphorylation of its substrate, histone H3. For the assay, A549 cells were seeded into the wells of a microtiter tray (5000 cells/well in 100 μl F12K media) late in the afternoon on Day 1. The cells were grown overnight (37° C., 5% CO2) On Day 2, 50 μl nocodazole (1 μM in media) was added to each well, giving a final concentration of 333 nM. Cells were grown for an additional 18 hrs under the same conditions.
On Day 3, 50 μl aliguots of varying concentrations of test compound were added to the wells Test compounds were prepared by 2-fold serial dilution of a […] stock (in DMSO). The diluted compounds in DMSO were then further diluted 1:50 with media to yield a final solution containing 4× test compound, 98% media, 2% DMSO. After incubation, the media/test compound was washed and the cells fixed with 2% paraformaldehyde (in Dulbecco's phosphate buffered saline “DPBS”; 25 μl per well; […] incubation). […] The cells were then stained with a secondary antibody labeled with a fluorescent dye (secondary antibody donkey anti-mouse AlexFluor 488 (Invitrogen Molecular Probes; 1:2000) and DAPI (1:15,000 of 1 mg/ml stock) for 1 hr at room temperature, washed three times with DPBS (200 μl/well) and stored under DPBS (100 μl/well) at 4° C. until ready for analysis.
A Zeiss Axiovert S100 inverted fluorescent microscope with a Plan-NEOFLUAR 10× objective, a Hamamatsu Lightningcure 200 Mercury-Xenon light source and an Omega Optical XF57 quad filter was used for all data collection. […] Images were captured and analyzed in 12-bit format using segmentation and morphological routines contained in the Image Pro software package. Identified nuclei were counted and pixel data for each cell along with experimental conditions was stored in a database using MySQL 4.0.14. […]
For phospho-histone H3 analysis the data is converted to Facs files and analysed using FlowJo. […]

Assay [21] has as its system a variety of tumor cell types. Description: In vitro antiproliferation assays against a variety of tumor cell types (stereoisomer comparison). How it is done: Moreover, it has been discovered that the enantiomer corresponding to the (1R,2R,3S,4S) diastereomer of structural formula (IVa) is largely responsible for the potency of the exo-exo cis racemate.
as §2

Assay [22] deals with U937 (histiocytic lymphoma). Description: In vitro antiproliferation assay, U937 cells. As to conditions: Homo sapiens, U-937. The protocol: as §2
[23] abbreviates: Homo sapiens, DU-145, DU145 (prostate carcinoma) cell line, read-out: IC50.
The mark [24] stands for this setting: Homo sapiens, MIA PaCa-2, MiaPaCa-2 (pancreatic carcinoma) cell line, read-out: IC50.
Where [25] appears, read: Homo sapiens, NCI-H1299, 6 point assay, H1299 cells, read-out: IC50, H1299 cells.
The mark [26] stands for this setting: Homo sapiens, A549, 6 point assay, A549 cells, read-out: IC50, A549 cells.
The mark [27] stands for this setting: Homo sapiens, DU-145, DU145, read-out: In Vitro IC50.
[28] abbreviates: Homo sapiens, MIA PaCa-2, Miapaca2, read-out: In Vitro IC50.

Where two headings read alike, the source gives them in different places.

These results are taken from patent publication US7868013B2, “Cycloalkyl substituted pyrimidinediamine compounds and their uses” (Rigel Pharmaceuticals, Inc., priority 2004, dated 2011).

One may read the IC50 as the concentration that inhibits the measured activity by half.

T1 sequence (Q96GD4 whole entry): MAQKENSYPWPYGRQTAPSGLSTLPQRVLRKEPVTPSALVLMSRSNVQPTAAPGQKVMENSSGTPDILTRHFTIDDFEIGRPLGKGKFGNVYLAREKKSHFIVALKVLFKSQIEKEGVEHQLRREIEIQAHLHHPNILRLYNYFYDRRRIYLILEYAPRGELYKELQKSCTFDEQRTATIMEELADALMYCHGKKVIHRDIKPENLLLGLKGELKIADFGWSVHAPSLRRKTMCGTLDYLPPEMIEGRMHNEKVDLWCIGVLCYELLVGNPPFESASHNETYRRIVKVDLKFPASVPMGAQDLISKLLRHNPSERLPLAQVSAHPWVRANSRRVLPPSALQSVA

As for `Cc1cc(Nc2ncc(F)c(NC3CCCC3C(N)=O)n2)ccc1N1CCN(C)CC1` (racemic) [Compound 15, Racemic-cis-N4-(2-Aminocarbonylcyclopent-1-yl)-5-fluoro-N2-[4-(4-methylpiperazin-1-yl)-3-methylphenyl]-2,4-pyrimidinediamine], the IC50 in [1] (setting [23]) is < 1 µM; in [2] it was < 1 µM; in assay [3] (setting [24]), < 1 µM; in assay [4] (setting [25]), 0.1 to 1 µM; in assay [5] (setting [26]), 0.1 to 1 µM.

On to `Cc1cc(Nc2ncc(F)c(NC3C4C=CC(C4)C3C(N)=O)n2)ccc1N1CCN(C)CC1` (racemic) [Compound 60, 2-exo-3-exo racemic N4-(3-aminocarbonylbicyclo[2.2.1]hept-5-ene-2-yl)-5-fluoro-N2-[3-methyl-4-(4-methylpiperazin-1-yl)phenyl]-2,4-pyrimidinediamine], for which the IC50 in [1] (DU145, read-out: In Vitro IC50) was ≤ 0.02 µM; in [6] it was ≤ 0.02 µM; in assay [7], ≤ 0.02 µM; in assay [8] it was ≤ 1 µM; in assay [9] it was ≤ 1 µM; in assay [10], ≤ 0.01 µM. Besides, the concentration for half-maximal inhibition (IC50) in [11] is ≤ 0.01 µM; in [12], ≤ 1 µM; in assay [13], ≤ 0.01 µM; in [3] (Miapaca2, read-out: In Vitro IC50), ≤ 0.01 µM; in assay [14] it was ≤ 0.01 µM; in assay [15], ≤ 0.02 µM. Moreover, the concentration for half-maximal inhibition (IC50) was ≤ 1 µM in assay [16]; ≤ 0.02 µM in assay [5] (A549, read-out: In Vitro IC50); ≤ 0.02 µM in assay [17]; ≤ 0.01 µM in assay [18] (HELA); ≤ 0.01 µM in assay [19].

With `Cc1cc(Nc2ncc(F)c(N[C@H]3CCC[C@H]3C(N)=O)n2)ccc1N1CCN(C)CC1` (stereo in doubt) [Compound 15a, (1S,2R)—N4-(2-Aminocarbonylcyclopent-1-yl)-5-fluoro-N2-[4-(4-methylpiperazin-1-yl)-3-methylphenyl]-2,4-pyrimidinediamine], the IC50 was < 1 µM in assay [2], < 1 µM in [3] (setting [24]), 0.1 to 1 µM in [4] (setting [25]) and 0.1 to 1 µM in [5] (setting [26]).

Take `Cc1cc(Nc2ncc(F)c(NC3C4C=CC(C4)C3C(N)=O)n2)ccc1N1CCN(C)CC1` [(1R,2R,3S,4S) diastereomer, N4-(3-aminocarbonylbicyclo[2.2.1]hept-5-en-2-yl)-5-fluoro-N2-[3-methyl-4-(4-methylpiperazin-1-yl)phenyl]-2,4-pyrimidinediamine]: the “Result in cell-based inhibition assays against Aurora kinase B compared to the (1S,2S,3R,4R) diastereomer” value in [20] (in words) is “similarly superior results”. In [21] ((1R,2R,3S,4S) diastereomer, more potent), the “Potency relative to the endo-endo racemate” value was 20-50 times. Besides, the “Potency relative to the (1S,2S,3R,4R) diastereomer” value in assay [21] (more potent) is “approximately 1000 fold”. In assay [21] (range in words, same cell lines), the “IC50s when tested as isolated stereoisomers” value is “nanomolar range”.

For the molecule `Cc1cc(Nc2ncc(F)c(NC3C(C(N)=O)[C@H]4C=C[C@@H]3C4)n2)ccc1N1CCN(C)CC1` (stereo in doubt) [Compound 60b, (1S,2R,3S,4R)—N4-(3-Aminocarbonylbicyclo[2.2.1]hept-5-en-2-yl)-5-fluoro-N2-[3-methyl-4-(4-methylpiperazin-1-yl)phenyl]-2,4-pyrimidinediamine], the IC50 is ≤ 1 µM in assay [1] (setting [27]); > 1 µM in [6]; > 1 µM in assay [7] (Homo sapiens, PC-3); ≤ 1 µM in assay [8] (Homo sapiens); > 1 µM in [22]; > 1 µM in [9] (Homo sapiens, SW-620). Further, the IC50 in [10] (Homo sapiens, MOLT-3) was > 1 µM; in assay [11] (Homo sapiens, COLO 205), > 1 µM; in [12] (Mus musculus), > 1 µM; in assay [20] (A549 cells, phospho-histone H3, read-out: IC50 of Aurora kinase-B inhibition) it was 2.49 µM; in [13], > 1 µM; in [3] (setting [28]), > 1 µM. Moreover, the IC50 in assay [14] (Homo sapiens, MOLT-4) was > 1 µM; in assay [16] (Homo sapiens) it was > 1 µM; in assay [4] (setting [25]), 1 to 10 µM; in assay [4] (Homo sapiens, NCI-H1299, H1299, read-out: In Vitro IC50), > 1 µM; in assay [5] (setting [26]), 1 to 10 µM; in [5] (Homo sapiens, A549, A549, read-out: In Vitro IC50), > 1 µM. The IC50 in assay [17] (Homo sapiens, U2OS) was ≤ 1 µM; in [18] (Homo sapiens, HeLa), > 1 µM.

In the case of `Cc1cc(Nc2ncc(F)c(N[C@@H]3CCC[C@@H]3C(N)=O)n2)ccc1N1CCN(C)CC1` (stereo in doubt) [Compound 15b, (1R,2S)—N4-(2-Aminocarbonylcyclopent-1-yl)-5-fluoro-N2-[4-(4-methylpiperazin-1-yl)-3-methylphenyl]-2,4-pyrimidinediamine], the IC50 in assay [1] (setting [23]) was < 5 µM; in [2], < 5 µM; in [3] (setting [24]), < 5 µM; in assay [4] (setting [25]) it was 1 to 10 µM; in assay [5] (setting [26]) it was 1 to 10 µM.

Regarding `Cc1cc(Nc2ncc(F)c(NC3C4C=CC(C4)C3C(N)=O)n2)ccc1N1CCN(C)CC1` (racemic) [compound 221, Racemic-(2-exo, 3-exo)-N4-(3-aminocarbonylbicyclo[2.2.1]hept-5-en-2-yl)-5-fluoro-N2-[3-methyl-4-(4-methylpiparazin-1-yl)phenyl]-2,4-pyrimidinediamine], the IC50 is ≤ 0.01 µM in assay [1] (setting [27]); ≤ 0.02 µM in assay [8] (Homo sapiens); ≤ 0.01 µM in assay [22]; ≤ 0.02 µM in assay [9] (Homo sapiens, SW-620); ≤ 0.01 µM in assay [10] (Homo sapiens, MOLT-3); ≤ 0.01 µM in [11] (Homo sapiens, COLO 205). For the same molecule, the IC50 was ≤ 1 µM in [12] (Mus musculus); ≤ 0.01 µM in assay [13]; ≤ 0.01 µM in [3] (setting [28]); ≤ 0.01 µM in assay [14] (Homo sapiens, MOLT-4); ≤ 0.02 µM in assay [15] (Homo sapiens); ≤ 1 µM in assay [16] (Homo sapiens). The IC50 is ≤ 0.02 µM in assay [4] (H1299, read-out: In Vitro IC50); ≤ 0.1 µM in assay [4] (setting [25]); ≤ 0.01 µM in assay [5] (A549, read-out: In Vitro IC50); ≤ 0.1 µM in assay [5] (setting [26]); ≤ 0.02 µM in [17] (Homo sapiens, U2OS); ≤ 0.01 µM in assay [18] (Homo sapiens, HeLa).
